As a reminder, the IC50 is the concentration at which inhibition is half-maximal. Low readings indicate greater potency, high ones weaker potency. A word on the AC50: it is the midpoint of the concentration-response curve, whichever way the signal moves. Low readings indicate activity at low concentration, high ones activity only at high concentration.

What all share (type): cell-based
Test [1] has as its system HTT mRNA. In words: RT-qPCR splicing assay for HTT mRNA isoforms (canonical junction CJ and alternative junction AJ). Particulars: A673 or K562 cell line, 24 hours compound treatment; for IC50: decrease in CJ mRNA; for AC50: increase in AJ mRNA. On the procedure: (§1) Compounds described herein were used to modulate RNA transcript abundance in cells. The expression of a target mRNA was measured by detecting the formation of an exon-exon junction in the canonical transcript (CJ). A compound mediated exon-inclusion event was detected by observing an increase in formation of a new junction with an alternative exon (AJ). Real-time qPCR assays were used to detect these splicing switches and interrogate the potency of various compounds towards different target genes. A high-throughput real time quantitative PCR (RT-qPCR) assay was developed to measure these two isoforms of the mRNA (CJ and AJ) for an exemplary gene, HTT, together with a control housekeeping gene, GAPDH or GUSB or PPIA, used for normalization. Briefly, the A673 or K562 cell line was treated with various compounds described herein (e.g., compounds of Formula (I)). After treatment, the levels of the HTT mRNA targets were determined from each sample of cell lysate by cDNA synthesis followed by qPCR.
Cells-to-CT 1-step kit: ThermoFisher A25602, Cells-to-CT lysis reagent: ThermoFisher 4391851C, TaqMan™ Fast Virus 1-Step Master Mix: ThermoFisher 4444436 GAPDH: VIC-PL, ThermoFisher 4326317E (Assay: Hs99999905_m1)—used for K562/suspension cell lines GUSB: VIC-PL, ThermoFisher 4326320E (Assay: Hs99999908_m1)—used for K562/suspension cell lines PPIA: VIC-PL, ThermoFisher 4326316E (Assay: Hs99999904_m1)—used for A673/adherent cell lines
(§2) The A673 cell line was cultured in DMEM with 10% FBS. Cells were diluted with full growth media and plated in a 96-well plate (15,000 cells in 100 ul media per well). The plate was incubated at 37° C. with 5% CO2 for 24 hours to allow cells to adhere. An 11-point 3-fold serial dilution of the compounds was made in DMSO then diluted in media in an intermediate plate. Compounds were transferred from the intermediate plate to the cell plate with the top dose at a final concentration of 10 uM in the well. Final DMSO concentration was kept at or below 0.25%. The cell plate was returned to the incubator at 37° C. with 5% CO2 for an additional 24 hours.
(§3) The K562 cell line was cultured in IMDM with 10% FBS. For K562, cells were diluted with full growth media and plated in either a 96-well plate (50,000 cells in 50 uL media per well) or a 384-well plate (8,000-40,000 cells in 45 uL media per well). An 11-point 3-fold serial dilution of the compounds were made in DMSO then diluted in media in an intermediate plate. Compound was transferred from the intermediate plate to the cell plate with the top dose at a final concentration of 10 uM in the well. Final DMSO concentration was kept at or below 0.25%. Final volume was 100 uL for 96-well plate and 50 uL for 384-well plate. The cell plate was then placed in an incubator at 37° C. with 5% CO2 for 24 hours.
(§4) The cells were then gently washed with 50 uL-100 uL cold PBS before proceeding to addition of lysis buffer. 30 uL-50 uL of room temperature lysis buffer with DNAse I (and optionally RNAsin) was added to each well. Cells were shaken/mixed thoroughly at room temperature for 5-10 minutes for lysis to take place and then 3 uL-5 uL of room temperature stop solution was added and wells were shaken/mixed again. After 2-5 minutes, the cell lysate plate was transferred to ice for RT-qPCR reaction setup. The lysates could also be frozen at −80° C. for later use.
In some cases, a direct lysis buffer was used. An appropriate volume of 3× lysis buffer (10 mM Tris, 150 mM NaCl, 1.5%-2.5% Igepal and 0.1-1 U/uL RNAsin, pH 7.4) was directly added to either K562 or A673 cells in media and mixed by pipetting 3 times. The plates were then incubated at room temperature with shaking/rocking for 20-50 minutes to allow for lysis to take place. After this time, the cell lysate plate was transferred to ice to set up for the RT-qPCR reactions. The lysates could also be frozen at −80° C. for later use. […]
Background: Real-time PCR tracks product formation cycle by cycle.

In test [2] the test system is HTT CJ mRNA. In words: Gene panel canonical junction qPCR assay, HTT. Particulars: decrease in CJ mRNA levels, RT-qPCR. On the procedure: as §1, §2, §3, §4
(§5) In some cases, a direct lysis buffer was used. An appropriate volume of 3× lysis buffer (10 mM Tris, 150 mM NaCl, 1.5%-2.5% Igepal and 0.1-1 U/uL RNAsin, pH 7.4) was directly added to either K562 or A673 cells in media and mixed by pipetting 3 times. The plates were then incubated at room temperature with shaking/rocking for 20-50 minutes to allow for lysis to take place. After this time, the cell lysate plate was transferred to ice to set up for the RT-qPCR reactions. The lysates could also be frozen at −80° C. for later use.
(§6) To set up 10 uL RT-qPCR reactions, cell lysates were transferred to 384-well qPCR plates containing the master mix according to the table below. The plates were sealed, gently vortexed, and spun down before the run. The volumes were adjusted accordingly in some instances where the reaction was carried in 20 uL. The table below summarizes the components of the RT-qPCR reactions:
(§7) The RT-qPCR reaction was performed using a QuantStudio (ThermoFisher) under the following fast cycling conditions. […]

Test [3] deals with SMN2 CJ mRNA. In words: Gene panel canonical junction qPCR assay, SMN2. Particulars: decrease in CJ mRNA levels, RT-qPCR. Here is the method: as §1, §2, §3, §4, §5, §6, §7
Test [4] has as its system Target C CJ mRNA. In words: Gene panel canonical junction qPCR assay, Target C. Particulars: decrease in CJ mRNA levels, RT-qPCR. Here is the method: as §1, §2, §3, §4, §5, §6, §7

Take `CN(c1ccc2c(n1)OCc1cc(-n3ccnn3)ccc1-2)[C@@H]1C[C@H]2CC[C@@H](C1)N2` [Compound 152]: the half-inhibitory concentration (IC50) is 0.1 to 1 µM in test [1], 0.1 to 1 µM in test [2], < 0.1 µM in test [3] and 0.1 to 1 µM in test [4]. Further, in test [1], the AC50 is < 0.1 µM.

With `CN(c1ccc2c(n1)OCc1cc(-n3cccn3)ccc1-2)C1CCNCC1` [Compound 175], the half-maximal inhibitory concentration (IC50) in test [1] is > 10 µM; in test [2], > 10 µM; in test [3] it was 1 to 10 µM; in test [4] it was > 10 µM. Besides, the AC50 in test [1] lay within 1 to 10 µM.

Take `CN(c1ccc2c(n1)OCc1cc(-n3cc(N)cn3)ccc1-2)[C@@H]1C[C@H]2CC[C@@H](C1)N2` [Compound 172]: the concentration for half-maximal inhibition (IC50) in test [1] is 0.1 to 1 µM; in test [2], 0.1 to 1 µM; in test [3] it was < 0.1 µM; in test [4], 0.1 to 1 µM. Moreover, in test [1], the AC50 is 0.1 to 1 µM.

For the molecule `c1cc2c(cc1-c1cn[nH]c1)COc1nc(N[C@@H]3C[C@H]4CC[C@@H](C3)N4)cnc1-2` [Compound 143, (exo)-N-[8-(1H-pyrazol-4-yl)-6H-isochromeno[3,4-b]pyrazin-3-yl]-8-azabicyclo[3.2.1]octan-3-amine], the concentration for half-maximal inhibition (IC50) in test [1], in test [2], in test [3] and in test [4] was 0.1 to 1 µM each time. This molecule displayed a half-maximal activity concentration (AC50) in test [1] of 0.1 to 1 µM.

With `CN(c1cnc2c(n1)OCc1cc(-c3cn[nH]c3)ccc1-2)C1CC(C)(C)NC(C)(C)C1` [Compound 142, N,2,2,6,6-pentamethyl-N-[8-(1H-pyrazol-4-yl)-6H-isochromeno[3,4-b]pyrazin-3-yl]piperidin-4-amine], the concentration for half-maximal inhibition (IC50) lay in the range of 0.1 to 1 µM in test [1], 0.1 to 1 µM in test [2], 0.1 to 1 µM in test [3] and 1 to 10 µM in test [4]. In test [1], the half-maximal activity concentration (AC50) lay in the range of 0.1 to 1 µM.

Turning to `c1cnn(-c2ccc3c(c2)COc2nc(N4C[C@H]5CNC[C@H]5C4)ccc2-3)c1` [Compound 185], the IC50 in test [1] was > 10 µM; in test [2] it was > 10 µM; in test [3], 1 to 10 µM; in test [4], > 10 µM. Also, the AC50 in test [1] is > 10 µM.

Regarding `CN(c1ccc2c(n1)OCc1cc(-c3cnn(C)c(=O)c3)ccc1-2)[C@@H]1C[C@H]2CC[C@@H](C1)N2` [Compound 160], the concentration for half-maximal inhibition (IC50) in test [1], in test [2], in test [3] and in test [4] was < 0.1 µM throughout. In addition, the AC50 in test [1] is < 0.1 µM.

On to `CN(c1ccc2c(n1)OCc1cc(-c3cnn(C)c3)ccc1-2)[C@@H]1C[C@H]2CC[C@@H](C1)N2` [Compound 150], for which the IC50 was < 0.1 µM in test [1], < 0.1 µM in test [2], > 10 µM in test [3] and 0.1 to 1 µM in test [4]. Besides, the AC50 in test [1] was < 0.1 µM.

Turning to `c1cnn(-c2ccc3c(c2)COc2nc(N4CCC5(CCNCC5)C4)ccc2-3)c1` [Compound 182], the IC50 in test [1], in test [2], in test [3] and in test [4] was > 10 µM in each case. Moreover, the AC50 in test [1] was > 10 µM.

In the case of `CN(c1ccc2c(n1)COc1cc(-n3cccn3)ccc1-2)C1CC(C)(C)NC(C)(C)C1` [Compound 125, N,2,2,6,6-pentamethyl-N-[8-(pyrazol-1-yl)-5H-chromeno[3,4-b]pyridin-3-yl]piperidin-4-amine], the IC50 in test [1], in test [2], in test [3] and in test [4] was > 10 µM in each case. In addition, the half-maximal activity concentration (AC50) in test [1] was > 10 µM.

In the case of `CN(c1ccc2c(n1)OCc1cc(-n3ccnc3)ccc1-2)[C@@H]1C[C@H]2CC[C@@H](C1)N2` [Compound 163], the IC50 in test [1] was < 0.1 µM; in test [2] it was < 0.1 µM; in test [3], < 0.1 µM; in test [4], 0.1 to 1 µM. The concentration at half-maximal activity (AC50) in test [1] is < 0.1 µM.

Turning to `CCN(c1ccc2c(n1)OCc1cc(-n3cccn3)ccc1-2)[C@@H]1C[C@H]2CC[C@@H](C1)N2` [Compound 191], the half-inhibitory concentration (IC50) in test [1] lay in the range of 0.1 to 1 µM; in test [2], 0.1 to 1 µM; in test [3], 0.1 to 1 µM; in test [4], 1 to 10 µM. The same molecule displayed a concentration at half-maximal activity (AC50) in test [1] of 1 to 10 µM.

`CN(c1ccc2c(n1)OCc1cc(-c3cc(=O)n(C)cn3)ccc1-2)[C@@H]1C[C@H]2CC[C@@H](C1)N2` [Compound 162]: the 50% inhibitory concentration (IC50) in test [1], in test [2], in test [3] and in test [4] was < 0.1 µM each time. In addition, the half-maximal activity concentration (AC50) in test [1] is < 0.1 µM.

In the case of `CC1(C)CC(Oc2ccc3c(n2)OCc2cc(-n4cccn4)ccc2-3)CC(C)(C)N1` [Compound 171], the IC50 in test [1] is 1 to 10 µM; in test [2], 1 to 10 µM; in test [3] it was 0.1 to 1 µM; in test [4], 1 to 10 µM. Further, in test [1], the AC50 lay within 1 to 10 µM.

As for `CN(c1cnc2c(n1)OCc1cc(-c3cn[nH]c3)ccc1-2)[C@@H]1C[C@H]2CC[C@@H](C1)N2` [Compound 144, (exo)-N-methyl-N-[8-(1H-pyrazol-4-yl)-6H-isochromeno[3,4-b]pyrazin-3-yl]-8-azabicyclo[3.2.1]octan-3-amine], the IC50 in test [1] was 0.1 to 1 µM; in test [2] it was 0.1 to 1 µM; in test [3], > 10 µM; in test [4], 0.1 to 1 µM. The same molecule returned an AC50 in test [1] of 0.1 to 1 µM.

`[2H]C([2H])([2H])N(c1ccc2c(n1)OCc1cc(-n3cccn3)ccc1-2)C1CCNCC1` [Compound 176]: the IC50 is 1 to 10 µM in test [1], 1 to 10 µM in test [2], 1 to 10 µM in test [3] and > 10 µM in test [4]. In test [1], this molecule showed an AC50 of 1 to 10 µM.

For `CCN(c1ccc2c(n1)OCc1cc(-n3cccn3)ccc1-2)[C@@H]1C[C@H]2CCC[C@@H](C1)N2` [Compound 195], the results for the IC50 in test [2], in test [3] and in test [4] were 0.1 to 1 µM, 0.1 to 1 µM and 1 to 10 µM, respectively.

For the molecule `CC1(C)CC(Nc2ccc3c(c2)COc2cc(-n4cccn4)ccc2-3)CC(C)(C)N1` [Compound 118, 2,2,6,6-tetramethyl-N-[3-(pyrazol-1-yl)-6H-benzo[c]chromen-8-yl]piperidin-4-amine], the IC50 in test [1], in test [2] and in test [3] was > 10 µM each time. The half-maximal activity concentration (AC50) in test [1] was > 10 µM.

In the case of `CN(c1ccc2c(c1)COc1cc(-n3cccn3)ccc1-2)C1CC(C)(C)NC(C)(C)C1` [Compound 117, N,2,2,6,6-pentamethyl-N-[3-(pyrazol-1-yl)-6H-benzo[c]chromen-8-yl]piperidin-4-amine], the half-maximal inhibitory concentration (IC50) in test [1], in test [2] and in test [3] was > 10 µM each time. In addition, the AC50 in test [1] is > 10 µM.

These data come from patent US20230148184A1, “COMPOUNDS AND METHODS FOR MODULATING SPLICING” (REMIX THERAPEUTICS INC., priority 2020, published 2023).
